Patent US20230416299A1, “COMPOUND AND METHOD FOR THE TREATMENT AND DIAGNOSIS OF NEURODEGENERATIVE CONDITIONS” (Swansea University, priority 2013, published 2023)

Tests used:
[1] = system: Nur-related factor 1 (Nurrl)/retinoid X receptor (Rxr) heterodimers; details: SN4741 cells, 10 μM
Experimental: (§1) LC-ESI-MS on the LTQ-Orbitrap LC-ESI-MS and LC-ESI-MSn was performed using an Ultimate 3000 HPLC system (Dionex, Surrey, UK) linked to the ESI source of a LTQ-Orbitrap XL or LTQ-Orbitrap Velos (Thermo Fisher, San Jose, CA) mass spectrometer. Luciferase Reporter Assay. The ability of oxysterols and their acidic metabolites to activate several nuclear receptors i.e. Lxrα and β, Fxr, Vdr, Nurrl was tested in luciferase assays. Transient transfection studies were performed in the mouse neuronal cell line SN4741. This cell line was selected as the oxysterols and acidic metabolites tested were initially identified in CSF. Cells were plated in 24-well plates (5×10^5 cells/well) 24 hr before transfection and transfected with 1 μg of plasmid DNA/well complexed with 2 μL of Lipofectamine 2000 (Invitrogen). Cells were transfected with 400 ng of a Lxr-, Fxr-, Vdr- or Nurrl−responsive luciferase reporter construct, and 200 ng of Lxrα, Lxrβ, Fxr, Vdr or Nurrl. A reporter gene expressing the Renilla luciferase (pRL-TK, Promega) was co-transfected in all experiments as an internal control for normalization of transfection efficiency. After a 12 h incubation, the lipid/DNA mix was replaced with fresh 2.5% serum medium containing vehicle or appropriate ligand (10 μM), as specified in each experiment. […]

[2] = molecular target: T1, Lxrα (Homo sapiens, UniProt Q13133); assay: Lxr-responsive luciferase reporter assay (Lxre + Lxrα) in SN4741 neural cells; format: cell-based, mouse; details: for Lxrα activation, luciferase activity: 10 μM, 24 h
T1 construct: expressed in transfected cells; host or cells: SN4741 mouse neuronal cell line
T1 sequence (Q13133 1-447): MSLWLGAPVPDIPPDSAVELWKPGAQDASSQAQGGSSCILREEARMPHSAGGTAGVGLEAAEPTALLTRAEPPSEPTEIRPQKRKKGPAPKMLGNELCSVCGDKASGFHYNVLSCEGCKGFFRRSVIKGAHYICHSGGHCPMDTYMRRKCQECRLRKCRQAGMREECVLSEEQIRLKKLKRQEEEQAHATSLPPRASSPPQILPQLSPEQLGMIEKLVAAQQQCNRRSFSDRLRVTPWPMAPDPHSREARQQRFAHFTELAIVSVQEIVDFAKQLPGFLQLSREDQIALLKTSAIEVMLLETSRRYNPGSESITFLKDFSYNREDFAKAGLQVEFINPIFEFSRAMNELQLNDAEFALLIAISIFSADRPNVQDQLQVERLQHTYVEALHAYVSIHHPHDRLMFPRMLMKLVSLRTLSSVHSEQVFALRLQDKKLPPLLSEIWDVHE
Description: (§2) Luciferase Reporter Assay.

[3] = molecular target: T2, Lxrβ (Homo sapiens, UniProt P55055); assay: Lxr-responsive luciferase reporter assay (Lxre + Lxrβ) in SN4741 neural cells; format: cell-based, mouse; details: for Lxrβ activation, luciferase activity: SN4741 cells, 10 μM, 24 h
T2 construct: expressed in transfected cells; host or cells: SN4741 mouse neuronal cell line
T2 sequence (P55055 1-460): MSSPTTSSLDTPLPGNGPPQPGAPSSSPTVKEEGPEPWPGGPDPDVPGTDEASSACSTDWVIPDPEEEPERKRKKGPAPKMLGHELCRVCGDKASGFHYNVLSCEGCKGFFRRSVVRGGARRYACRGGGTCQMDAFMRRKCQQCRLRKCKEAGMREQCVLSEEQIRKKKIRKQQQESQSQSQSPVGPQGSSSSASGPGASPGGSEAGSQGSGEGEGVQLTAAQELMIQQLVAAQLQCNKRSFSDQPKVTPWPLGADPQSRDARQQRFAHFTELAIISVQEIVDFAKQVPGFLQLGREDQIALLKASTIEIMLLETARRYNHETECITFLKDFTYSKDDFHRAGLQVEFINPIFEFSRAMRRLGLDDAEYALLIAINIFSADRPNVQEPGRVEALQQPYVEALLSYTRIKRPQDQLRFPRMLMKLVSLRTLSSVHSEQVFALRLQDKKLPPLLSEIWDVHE
Description: as §2

[4] = molecular target: T3, Lxrβ-LBD (Homo sapiens, UniProt P55055); assay: LanthaScreen TR-FRET Lxrβ coactivator assay; format: binding
T3 construct: purchased Invitrogen
T3 sequence (P55055 222-460 limits assumed): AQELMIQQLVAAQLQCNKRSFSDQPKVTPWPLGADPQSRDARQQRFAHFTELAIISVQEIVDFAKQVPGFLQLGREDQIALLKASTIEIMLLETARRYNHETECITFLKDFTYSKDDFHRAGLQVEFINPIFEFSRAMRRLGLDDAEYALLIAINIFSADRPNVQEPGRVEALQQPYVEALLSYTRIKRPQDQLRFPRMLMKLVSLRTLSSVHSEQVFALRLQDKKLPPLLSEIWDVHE
Description: Lxrβ Ligand Binding Assay. For Lxrβ ligand binding activity measurement, the applicants used the LANTHASCREEN™ TR-FRET Lxrβ Coactivator Assay (Invitrogen). The assay uses a terbium (Tb)-labeled anti-GST antibody, a fluorescein-labeled coactivator peptide and the Lxrβ-LBD tagged with glutathione-S-transferase (GST). Binding of the agonist/ligand to Lxrβ-LBD causes a conformational change that result in an increase in the affinity of the Lxrβ for the coactivator peptide. The close proximity of the fluorescently labeled coactivator peptide to the Tb-labeled antibody causes an increase in the TR-FRET signal intensity. The TR-FRET ratio of 520/495 was calculated using a Victor multi label reader with an excitation wavelength of 340 nm and emission wavelengths of 520 nm and 495 nm. The activational capacity of potential ligands was tested in a […] polypropylene plate, following the manufacturer's protocol.

[5] = system: Abca1, Abcg1 and Srebf1 transcript levels; assay: Quantitative PCR of Lxr target genes in SN4741 cells; format: cell-based, mouse; details: SN4741 cells treated 3 h
Experimental: (§3) Quantitative PCR. Total RNA was extracted from SN4741 cells and zebrafish treated with the compounds of interest using the RNeasy Mini Kit (Qiagen), 1 μg was treated with RQ1 RNase-free DNase (Promega) and reverse transcribed using Superscript II Reverse Transcriptase (Invitrogen) and random primers (Invitrogen) (RT+ reaction). Parallel reactions without reverse transcriptase enzyme were done as a control (RT− reaction), and Sybergreen real-time quantitative PCR assays were performed. Expression levels were obtained by normalization with the value of the housekeeping gene encoding actin obtained for every sample in parallel assays.

[6] = system: Islet-1:GFP transgenic zebrafish embryos; format: in vivo
Experimental: as §3
Zebrafish Strain and Mainrenance Zebrafish were raised on a 14/10 h day/night cycle and were kept at 28.5° C. Islet-1:GFP transgenic embryos were obtained via natural spawning and staged in hours or days post fertilization (hpf and dpf) according to Kimmel et al). Embryos older than 24 hpf were treated with 0.03% phenylthiourea (PTU) to inhibit pigmentation. MO injections were performed using splice site specific zebrafish 1xr MO. MO injected embryos were immediately dechorionated and transferred to a 96 well plate and exposed to dimethyl sulfoxide (DMSO) treated or ligand treated medium.
Compound Exposure. Islet-1:GFP embryos were collected by natural mating and immediately (at 1 cell stage) dechorionated and transferred to a 96 well plate. Each of the compounds tested were obtained as 10 mM stock and diluted in embryo medium to a final concentration of 10 μM, and 200 μL was added to each well. DMSO or propan-2-ol treated embryo medium was taken as control. Ligand solutions were replaced every 12 h with fresh ligand solution prepared in PTU treated embryo medium. Embryos were collected at 48 hpf, fixed for 4 h at room temperature with 4% paraformaldehyde and then washed and kept in PBST. Immunocytochemistry was performed using an anti-GFP antibody and fluorescence was viewed and photographed using a Zeiss Axioplan compound microscope and a Zeiss Axiocam digital camera.

[7] = system: mouse E11.5 brain primary cultures; assay: Mouse E11.5 brain primary cultures (Islet1+, active caspase 3+, BrdU, Nkx6.1 counts); format: cell-based; details: for Number of Islet1+ cells: wild type cultures, 3 DIV; for Number of active caspase-3+ cells: 10 μM 3β,7α-diHCA, 3βH,7O-CA, 25-HC, low concentrations of 3β,7β-diHCA, 3β-HCA
Experimental: Primary Brain Cultures. Brains from E11.5 mice were manually dissected, plated on poly-D-lysine (150,000 cells/cm2) and grown in serum-free N2 media consisting of 1:1 mixture of F12 and DMEM with 10 ng/mL insulin, 100 μg/mL apo-transferrin, 100 μM putrescine, 20 nM progesterone, 30 nM selenium, 6 mg/mL glucose, and 1 mg/mL BSA. Cells were treated for 3 days in vitro (DIV) with the compounds of interest, fixed with 4% PFA and processed for staining using appropriate antibodies.
For BrdU analysis, cells were treated with BrdU one hour after plating and media was replaced with fresh medium after 16 h. After a further 2 days in culture, cells were treated for 30 min with 2N HCl and then immunocytochemistry was performed to evaluate the number of double BrdU+;Islet1+ cells (a measure of motor neuron neurogenesis). Hoechst staining was performed by permeabilizing cells with a 0.3% Triton-X 100/PBS solution for 5 min followed by incubation with Hoechst 33258 (Sigma) for 10 min.
Antibodies and Detection Procedures. Cells were fixed in 4% PFA, washed in PBS and blocked in 5% normal goat serum/PBS for 1 h at room temperature. Primary antibodies were diluted in PBS (pH 7.4), 0.3% Triton X-100, 1% BSA and incubations were carried out overnight at +4° C. or at room temperature for 2 h. The antibodies used were anti-: BrdU (1:400; Abeam), Islet-1 (1:100; Developmental Studies Hybridoma Bank), cleaved caspase-3 (Asp175) (1:100; Cell Signaling Technology), tyrosine hydroxylase (TH;1:1000; Pel-Freeze) GABA (1:1,000; Sigma), Brn3a (1:250; Millipore), Nkx6.1 (1:200; Novus Biologicals), choline acetyltransferase (ChAT; 1:500; Millipore) and appropriate secondary antibodies (Jackson ImmunoResearch or Alexa). Cells positive for the corresponding marker were counted directly at the microscope at a magnification of 20 x. Cells were counted in every well, in eight consecutive fields (going from one side of the well to the other, passing through the center), in three different wells per experiment and in three different experiments per condition. Random pictures of the wells were taken for every condition to document the result, and representative pictures were subsequently selected to represent the quantitative data. Photos were acquired with a Zeiss Axioplan microscope and a Hamamatsu camera C4742-95 using the Openlab software.

[8] = molecular target: T4, Fxr (Homo sapiens, UniProt Q96RI1); assay: Fxr-responsive luciferase reporter assay (Fxre + Fxr) in SN4741 neural cells; format: cell-based, mouse; details: 24 h
T4 construct: expressed in transfected cells; host or cells: SN4741 mouse neuronal cell line
T4 sequence (Q96RI1 1-486): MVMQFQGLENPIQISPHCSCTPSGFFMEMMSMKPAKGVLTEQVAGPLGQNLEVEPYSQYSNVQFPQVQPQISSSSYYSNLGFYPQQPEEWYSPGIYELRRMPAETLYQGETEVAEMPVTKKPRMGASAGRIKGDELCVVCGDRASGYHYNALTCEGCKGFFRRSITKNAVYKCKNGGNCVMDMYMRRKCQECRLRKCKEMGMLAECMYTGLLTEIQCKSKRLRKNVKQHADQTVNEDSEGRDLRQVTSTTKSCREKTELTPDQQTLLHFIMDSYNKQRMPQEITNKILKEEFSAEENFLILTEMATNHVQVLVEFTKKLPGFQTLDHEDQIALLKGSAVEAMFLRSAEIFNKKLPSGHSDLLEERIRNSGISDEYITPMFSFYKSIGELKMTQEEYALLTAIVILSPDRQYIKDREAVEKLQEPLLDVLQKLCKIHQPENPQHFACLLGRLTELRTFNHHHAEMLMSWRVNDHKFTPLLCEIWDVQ
Experimental: as §1

`CC1=C(/C=C/C(C)=C\C=C\C(C)=C\C(=O)O)C(C)(C)CCC1` [9-cis-RA, 9-cis-retinoic acid] was tested, and the “Activation of DR5 element luciferase reporter” value [1] was “activated this reporter”.
In the case of `CC(CCC[C@@H](C)[C@H]1CC[C@H]2[C@@H]3[C@@H](O)C=C4C[C@@H](O)CC[C@]4(C)[C@H]3CC[C@]12C)C(=O)O` (stereo partly drawn) [3β,7β-diHCA, 3β,7β-dihydroxycholest-5-en-26-oic acid], the “Lxrα activation, luciferase activity” value [2] was “have the ability to activate both Lxrs”, the “Lxrβ activation, luciferase activity” value [3] was “have the ability to activate both Lxrs” and the “Lxrβ activational capacity in combination with 22R-HC” value ([3]; acid 10 μM + 22R-HC 10 μM) was “No additive effect was observed”. The “Competitor concentration with significant difference (p<0.05) from 10 μM 3β,7α-diHCA alone in TR-FRET Lxrβ coactivator assay” value ([4]; added to 10 μM 3β,7α-diHCA) was ≥ 2 µM, the “Competition with 3β,7α-diHCA in TR-FRET Lxrβ coactivator assay” value ([4]; increasing concentrations with 3β,7α-diHCA at its most potent concentration) was “the effect of 3β,7α-diHCA was reduced to that of the latter acids” and the “Abca1, Abcg1 and Srebf1 transcript levels” value [5] was “induced transcription, but to a lesser extent”. The “Toxicity to zebrafish embryos” value ([6]; 10 μM in medium) was “deleterious toxic effect which impaired the survival of the fish”, the “Concentration at which toxicity is initiated (active caspase-3+ cells)” value ([7]; mouse, E11.5 mouse brain primary cultures, 3 days) was 1000 nM and the “Number of Islet1+ cells” value [7] was “caused the loss of Islet1+ cells in the cultures”. The “Number of active caspase-3+ cells” value ([7]; wt cultures) was “increased the number of active caspase-3+ cells”.
`C[C@H](CCCC(C)(C)O)[C@H]1CC[C@H]2[C@@H]3CC=C4C[C@@H](O)CC[C@]4(C)[C@H]3CC[C@]12C` [25-HC, cholest-5-ene-3β,25-diol] was tested, and the “Lxrα activation, luciferase activity” value [2] was “activate Lxr”, the “Lxr luciferase activity with the Lxr antagonist GGPP” value ([2]; metabolite 10 μM + GGPP 10 μM) was “similarly blocked” and the “Lxrβ activation, luciferase activity” value [3] was “activate Lxr”. For the same molecule, the “Islet-GFP expression in cranial nerves” value ([6]; 10 μM, 48 hpf) was “modest increase in the levels of Islet-1”, the “Effect on active caspase-3+ cells with GGPP” value ([7]; GGPP 10 μM, 3β,7β-diHCA, 3β-HCA at 2 μM) was “GGPP sensitive manner” and the “Effect on Islet1+ cells in cultures from Lxrα−/−β−/− mice” value ([7]; Lxrα−/−β−/− cultures) was “blocked in cultures from Lxrα−/−β−/−animals”. The “Number of Islet1+ cells” value [7] was “increase the number of Islet1+ oculomotor cells”, the “Effect on Islet1+ cells with Lxr antagonist GGPP” value ([7]; wt cultures, GGPP 10 μM) was “inhibited by the Lxr antagonist GGPP” and the “Number of active caspase-3+ cells” value ([7]; wt cultures) was “reduced the number of active caspase-3+ cells”.
For `C[C@H](CCC(=O)O)[C@H]1CC[C@H]2[C@@H]3CC=C4C[C@@H](O)CC[C@]4(C)[C@H]3CC[C@]12C` [3βH-Δ^5-BA, 3β-hydroxychol-5-en-24-oic acid], the “Fxr activation, luciferase activity” value [8] was “also activated Fxr, but was less potent than CDCA”.
